Measurements reported in paper PMC10252594 (Cancers, 2023).
Read-outs that look alike come from different tables or passages of the source. Marks after values point to notes of the source that are not given here.

What was measured:
LAPC-4 xenografts = system: LAPC-4 xenografts
From the text: The xenograft experiment was approved by the Université Laval Animal Care Committee (Comité de Protection des Animaux de l’Université Laval, Québec, QC, Canada) and carried out in an animal facility approved by the Canadian Council on Animal Care (CCAC). Homozygous male Balb/c athymic nude mice (~42 days old, weighing approximately 28 g) were obtained from Charles River Inc. (Saint-Constant, QC, Canada) and housed (4 to 5) in vinyl micro-isolated ventilated cages equipped with air lids. Cages were kept in laminar airflow hoods and maintained in pathogen-limiting conditions. The animals were housed under a controlled environment at 22 ± 3 °C with 50 ± 20% relative humidity and light set at 12 h/day (light on at 07:15) during the acclimatization and study periods. Sterile water and rodent food (Rodent Diet #T.2018.15, Harlan Teklad, Madison, WI, USA) were provided ad libitum.
After an acclimatization period of 5 days, the mice were inoculated into both flanks by subcutaneous (SC) injection of 4 × 10^6 LAPC-4 cells (Passage 14) in 0.1 mL of growth medium containing 50% Matrigel (BD Biosciences, Mississauga, ON, Canada) via a 2.5-cm long 22-gauge needle. Two weeks later, mice that developed tumors were randomized according to tumor volume, divided into […] groups (Gr-1 to Gr-8), and treated over a period of 28 days. A bilateral orchiectomy was performed under isoflurane-induced anesthesia for Gr-1 but not for Gr-2 to Gr-8. Both Gr-1 (CTX control (CTL), 9 mice, 16 tumors) and Gr-2 (intact CTL, 9 mice, 18 tumors) were treated with 0.1 mL of the vehicle alone (8% DMSO/92% propylene glycol (PG) administered by gavage (PO). Gr-3 (30 mg/kg/PO, 10 mice, 19 tumors) received 0.843 mg of RM-581. Gr-4 (10 mg/kg/PO, 10 mice, 20 tumors) received 0.281 mg of RM-581. Gr-5 (3 mg/kg/PO, 10 mice, 18 tumors) received 0.084 mg of RM-581. Gr-6 (60 mg/kg/SC, 9 mice, 18 tumors) received 1.686 mg of abiraterone. Gr-7 (60 mg/kg/PO, 9 mice, 17 tumors) received 1.686 mg of abiraterone acetate. Gr-8 (4 mg/kg/IP, 9 mice, 17 tumors) received 0.112 mg of docetaxel.
RM-581 and abiraterone acetate were administered six days a week PO; abiraterone was administered six days a week SC; and docetaxel was administered twice a week by intraperitoneal (IP) injection. RM-581 was first dissolved in DMSO, and thereafter we added PG to obtain the appropriate concentration in the vehicle fluid (8% DMSO/92% PG). Abiraterone acetate and abiraterone were dissolved in 0.3% hydroxypropyl cellulose in saline (0.9% NaCl), while docetaxel was first dissolved in DMSO, and thereafter we added phosphate-buffered saline (PBS) to obtain the proper concentration in the carrier fluid (0.5% DMSO/99.5% PBS). All solutions were prepared one day prior to the initiation of treatment and stored at 4 °C under constant agitation.
The mice were weighed at the start and end of the protocol. Tumor area (mm^2) was calculated twice a week using two perpendicular diameters (L and W), which were recorded using a caliper, and the formula L/2 × W/2 × π. The area measured on the first day of treatment was fixed at 100%. At the end of the studies and 3 h after the last treatment, the mice were terminally anesthetized, and their final body weights were measured. Tumors, liver, kidney, and total prostate were collected from mice during necropsy, while blood was collected by cardiac puncture. Tissues and plasma were immediately frozen at −80 °C until analysis.

LAPC-4 cells [1] = assay: Gene expression study by qPCR; format: cell-based, human; settings: RM-581 5 µM or atorvastatin 10 µM, CTL fixed at 1.0
Procedure: LAPC-4 cells (3 × 10^5) were treated with RM-581 (1, 2, and 5 µM) at different times (6, 18, 24, and 36 h) and the expression of various genes was determined as previously reported. Primer sequences used for the analysis of each gene are reported in Table S3 (Supplementary Materials).

LAPC-4 cells [2] = assay: Total cholesterol in LAPC-4 cells (kit); format: cell-based, human; settings: RM-581 2 μM or atorvastatin 10 μM; for Total cholesterol concentration in LAPC-4 cells: Table S2
Procedure: A cholesterol quantification kit provided by Sigma-Aldrich (Catalog Number MAK043) was used following the manufacturer’s instructions to determine the concentration of total cholesterol, free cholesterol, and cholesteryl ester in samples. The cholesterol contents were measured in samples from two different protocols. […] Secondly, in tumor, liver, and plasma obtained at the end of the LAPC-4 xenograft experiment (control group and the group treated with RM-581 at 10 mg/kg/PO).

LNCaP = system: LNCaP; design: method as in PMID 34681843; settings: AR positive, three days, MTS; cited from earlier work

C#C[C@]1(O)CC[C@H]2[C@@H]3CCc4cc(OC)c(N5CCN(C(=O)[C@@H]6CCCN6C(=O)c6ccc7ccccc7n6)CC5)cc4[C@H]3CC[C@@]21C [RM-581]
time to significant difference with intact (untreated) group (LAPC-4 xenografts; 3 mg/kg PO): 14 days | tumor growth (LAPC-4 xenografts; 3 mg/kg PO, 6 days per week): tumors returned to their original size after 22 days | time to significant difference with intact (untreated) group (LAPC-4 xenografts; 10 mg/kg PO): 7 days | tumor size compared with 30 mg/kg group (LAPC-4 xenografts; 10 mg/kg PO, 6 days per week, day 28): identical at the end of the protocol | time to significant difference with intact (untreated) group (LAPC-4 xenografts; 30 mg/kg PO): 7 days | reduction in the initial tumor size at end of protocol (LAPC-4 xenografts; 30 mg/kg PO, 6 days per week, day 28): 88% | effective oral doses for tumor regression (LAPC-4 xenografts; LAPC-4 xenograft, PO): 3 to 30 mg/kg | ACAT1 mRNA expression (LAPC-4 cells [1]; 6 h): 0.7 * | ACLY mRNA expression (LAPC-4 cells [1]; 6 h): 0.8 | FASN mRNA expression (LAPC-4 cells [1]; 6 h): 1.0 | HMGCR mRNA expression (LAPC-4 cells [1]; 6 h): 1.9 ** | HMGCS1 mRNA expression (LAPC-4 cells [1]; 6 h): 2.7 ** | LDLR mRNA expression (LAPC-4 cells [1]; 6 h): 1.4 | MVD mRNA expression (LAPC-4 cells [1]; 6 h): 2.7 ** | MVK mRNA expression (LAPC-4 cells [1]; 6 h): 1.2 | SCD1 mRNA expression (LAPC-4 cells [1]; 6 h): 0.7 | ACAT1 mRNA expression (LAPC-4 cells [1]; 18 h): 0.9 | ACLY mRNA expression (LAPC-4 cells [1]; 18 h): 0.4 ** | FASN mRNA expression (LAPC-4 cells [1]; 18 h): 0.5 ** | HMGCR mRNA expression (LAPC-4 cells [1]; 18 h): 1.2 | HMGCS1 mRNA expression (LAPC-4 cells [1]; 18 h): 3.3 ** | LDLR mRNA expression (LAPC-4 cells [1]; 18 h): 1.8 ** | MVD mRNA expression (LAPC-4 cells [1]; 18 h): 1.8 ** | MVK mRNA expression (LAPC-4 cells [1]; 18 h): 1.6 | SCD1 mRNA expression (LAPC-4 cells [1]; 18 h): 0.8 | ACAT1 mRNA expression (LAPC-4 cells [1]; 24 h): 1.1 | ACLY mRNA expression (LAPC-4 cells [1]; 24 h): 0.9 | FASN mRNA expression (LAPC-4 cells [1]; 24 h): 0.6 * | HMGCR mRNA expression (LAPC-4 cells [1]; 24 h): 2.6 ** | HMGCS1 mRNA expression (LAPC-4 cells [1]; 24 h): 2.4 ** | LDLR mRNA expression (LAPC-4 cells [1]; 24 h): 2.6 ** | MVD mRNA expression (LAPC-4 cells [1]; 24 h): 2.1 ** | MVK mRNA expression (LAPC-4 cells [1]; 24 h): 1.0 | SCD1 mRNA expression (LAPC-4 cells [1]; 24 h): 2.5 ** | ACAT1 mRNA expression (LAPC-4 cells [1]; 36 h): 1.2 | ACLY mRNA expression (LAPC-4 cells [1]; 36 h): 0.9 | FASN mRNA expression (LAPC-4 cells [1]; 36 h): 0.6 * | HMGCR mRNA expression (LAPC-4 cells [1]; 36 h): 2.5 ** | HMGCS1 mRNA expression (LAPC-4 cells [1]; 36 h): 2.0 ** | LDLR mRNA expression (LAPC-4 cells [1]; 36 h): 2.5 ** | MVD mRNA expression (LAPC-4 cells [1]; 36 h): 1.6 ** | MVK mRNA expression (LAPC-4 cells [1]; 36 h): 1.0 | SCD1 mRNA expression (LAPC-4 cells [1]; 36 h): 3.5 ** | Total cholesterol in LAPC-4 cells vs untreated cells (LAPC-4 cells [2]; 18, 36, or 72 h): did not show a significant difference | Total cholesterol concentration in LAPC-4 cells (LAPC-4 cells [2]; 18 h): 68 ± 3 | Total cholesterol concentration in LAPC-4 cells (LAPC-4 cells [2]; 36 h): 69 ± 6 | Total cholesterol concentration in LAPC-4 cells (LAPC-4 cells [2]; 72 h (first line, control 66 ± 2)): 69 ± 4 | IC50 (LNCaP): 1200 nM
